Reference: patent US20260256797A1, “NOVEL INDENONE DERIVATIVES AND USES THEREOF” (AMYLOID SOLUTION INC., priority 2022, published 2026)

How the values were obtained:
Aβ1-42 = target: T1, Aβ1-42 (Homo sapiens, UniProt P05067); experiment: Amyloid-beta (Aβ) disaggregation test by thioflavin-T assay; assay type: biochemical; details: 50 μM Aβ1-42 aggregated 24 hours, then compound 0-500 μM for 48 hours at 37° C.
T1 construct: dissolving Aβ1-42 or Tau-RD3 (Tau repeat domain 3) monomer in DMSO
Description: (§1) Each compound was dissolved in DMSO to a concentration of 10 mM. Subsequently, the compound was diluted with 6% DMSO (in DW) and used.
(§2) Specifically, amyloid-beta and tau solutions were prepared by dissolving Aβ1-42 or Tau-RD3 (Tau repeat domain 3) monomer in DMSO to a concentration of 10 mM. Thereafter, each solution was diluted with DW to a concentration of 100 μM and stored on ice. Meanwhile, thioflavin-T was dissolved in 50 mM glycine buffer (pH 8.5) to a concentration of 5 mM. Thereafter, the resulting solution was diluted with 50 mM glycine buffer (pH 8.5) to a concentration of 5 μM and stored in a dark room while light was blocked.
(§3) Each of the amyloid-beta and tau solutions prepared according to Experimental Example 1.1 was added to a 1.5 mL microcentrifuge tube to a concentration of 50 μM or 35 µM, and then a reaction was allowed to occur therebetween at 37° C. for 24 hours. Each of the 1.5 mL microcentrifuge tubes in which amyloid-beta aggregation and tau aggregation had been completed was treated with each compound at a concentrated of 500 μM to 0 μM through serial dilution, and then a further reaction was allowed to occur therebetween at 37° C. for 48 hours. 25 μL of the reaction solution in which the reaction had been completed was added to each well of a 96-well plate for fluorescence analysis, and 75 μL of the previously prepared thioflavin-T solution was added to each well. After a reaction was allowed to occur at room temperature in the dark for 5 minutes, fluorescence values were measured at excitation 450 nm and emission 485 nm by using a multi-mode microplate reader.
(§4) The fluorescence value of a group (control) treated with amyloid-beta or tau alone, followed by aggregation for 72 hours was converted into a percentage value and expressed as 100, and amyloid-beta and tau aggregates, in which aggregation had been completed upon reaction for 24 hours, were treated with each compound at each concentration and a further reaction was allowed to occur therebetween for 48 hours, and then fluorescence values thereof were measured and converted into relative values. The results thereof are illustrated in FIGS. 1 to 6 and 7 to 12. In addition, EC50 values of the compounds of the present disclosure for amyloid-beta and tau, respectively are summarized in Table 1.

[1] = target: Tau-RD3 (Tau repeat domain 3) (Homo sapiens, UniProt P10636); experiment: Tau disaggregation test by thioflavin-T assay; assay type: biochemical; details: 35 μM Tau-RD3 aggregated 24 hours, then compound 0-500 μM for 48 hours at 37° C.
Tau-RD3 (Tau repeat domain 3), sequence (P10636 623-653 limits assumed): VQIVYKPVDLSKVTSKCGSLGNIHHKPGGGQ
Description: as §1, §2, §3, §4

T1 sequence (P05067 672-713 limits assumed): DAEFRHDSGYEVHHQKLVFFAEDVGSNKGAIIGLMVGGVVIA

Row | Compound | EC50 (Aβ1-42) [µM] | EC50 [1] [µM]
1 | Cc1ncsc1C1=C(c2cccnc2)C(=O)c2cc(OCCCc3ccccc3)ccc21 [Compound 1, 3-(4-methylthiazol-5-yl)-6-(3-phenylpropoxy)-2-(pyridin-3-yl)-1H-inden-1-one] | 8.2 | 19.2
2 | Cc1ncsc1C1=C(c2ccccc2CC#N)C(=O)c2cc(OCCCc3ccccc3)ccc21 [Compound 2, 2-(2-(3-(4-methylthiazol-5-yl)-1-oxo-6-(3-phenylpropoxy)-1H-inden-2-yl)phenyl) acetonitrile] | 92.9 | 321
3 | Cc1scnc1C1=C(c2cccnc2)C(=O)c2cc(OCCCN3CCOCC3)ccc21 [Compound 4, 3-(5-methylthiazol-4-yl)-6-(3-morpholinopropoxy)-2-(pyridin-3-yl)-1H-inden-1-one] | 75 | 156
4 | Cc1scnc1C1=C(Br)C(=O)c2cc(OCCCN3CCOCC3)ccc21 [Compound 5, 2-bromo-3-(5-methylthiazol-4-yl)-6-(3-morpholinopropoxy)-1H-inden-1-one] | 65.6 | 344
5 | O=C1C(c2cccnc2)=C(c2ccoc2)c2ccc(OCCCc3ccccc3)cc21 [Compound 9, 3-(furan-3-yl)-6-(3-phenylpropoxy)-2-(pyridin-3-yl)-1H-inden-1-one] | 19.1 | 53.6
6 | Cc1ncsc1C1=C(c2cccnc2)C(=O)c2cc(OCCCc3ccncc3)ccc21 [Compound 13, 3-(4-methylthiazol-5-yl)-2-(pyridin-3-yl)-6-(3-(pyridin-4-yl)propoxy)-1H-inden-1-one] | 110 | 1.5
7 | Cc1ncsc1C1=C(c2cccnc2)C(=O)c2cc(OCCc3ccccc3)ccc21 [Compound 14, 3-(4-methylthiazol-5-yl)-6-phenethoxy-2-(pyridin-3-yl)-1H-inden-1-one] | 177 | > 500
8 | Cc1ncsc1C1=C(c2cccnc2)C(=O)c2cc(OCCCCc3ccccc3)ccc21 [Compound 15, 3-(4-methylthiazol-5-yl)-6-(4-phenylbutoxy)-2-(pyridin-3-yl)-1H-inden-1-one] | 2.5 | 59.8
9 | Cc1ncsc1C1=C(c2cccnc2)C(=O)c2cc(OCOCc3ccccc3)ccc21 [Compound 16, 6-((benzyloxy)methoxy)-3-(4-methylthiazol-5-yl)-2-(pyridin-3-yl)-1H-inden-1-one] | 12.5 | 96.5
10 | COc1ccc(C2=C(c3ncsc3C)c3ccc(OCCc4ccccc4)cc3C2=O)cc1 [Compound 18, 2-(4-methoxyphenyl)-3-(5-methylthiazol-4-yl)-6-phenethoxy-1H-inden-1-one] | 26.1 | 242
11 | COc1ccc(C2=C(c3ncsc3C)c3ccc(OCCCCc4ccccc4)cc3C2=O)cc1 [Compound 19, 2-(4-methoxyphenyl)-3-(5-methylthiazol-4-yl)-6-(4-phenylbutoxy)-1H-inden-1-one] | 11.6 | 338
12 | COc1ccc(C2=C(c3ncsc3C)c3ccc(OCOCc4ccccc4)cc3C2=O)cc1 [Compound 20, 6-((benzyloxy)methoxy)-2-(4-methoxyphenyl)-3-(5-methylthiazol-4-yl)-1H-inden-1-one] | 11.9 | 478
13 | COc1ccc(OCCOc2ccc3c(c2)C(=O)C(c2ccc(F)cc2)=C3c2ncsc2C)cc1 [Compound 22, 2-(4-fluorophenyl)-6-(2-(4-methoxyphenoxy)ethoxy)-3-(5-methylthiazol-4-yl)-1H-inden-1-one] | 18.5 | 60.3
14 | Cc1scnc1C1=C(c2ccc(F)cc2)C(=O)c2cc(OCCOc3ccc4c(c3)OCO4)ccc21 [Compound 24, 6-(2-(benzo[d][1,3]dioxol-5-yloxy)ethoxy)-2-(4-fluorophenyl)-3-(5-methylthiazol-4-yl)-1H-inden-1-one] | 99.6 | > 500
15 | Cc1scnc1C1=C(c2ccc(F)cc2)C(=O)c2cc(OCCOc3ccncc3)ccc21 [Compound 25, 2-(4-fluorophenyl)-3-(5-methylthiazol-4-yl)-6-(2-(pyridin-4-yloxy)ethoxy)-1H-inden-1-one] | 7.6 | > 500
16 | Cc1scnc1C1=C(c2cncnc2)C(=O)c2cc(OCCOc3ccc(F)c(F)c3)ccc21 [Compound 27, 6-(2-(3,4-difluorophenoxy)ethoxy)-3-(5-methylthiazol-4-yl)-2-(pyrimidin-5-yl)-1H-inden-1-one] | 237 | > 500
17 | Cc1scnc1C1=C(c2cccs2)C(=O)c2cc(OCCc3ccccc3)ccc21 [Compound 28, 3-(5-methylthiazol-4-yl)-6-phenethoxy-2-(thiophen-2-yl)-1H-inden-1-one] | 8.3 | 310
18 | Cc1scnc1C1=C(c2cccs2)C(=O)c2cc(OCCCCc3ccccc3)ccc21 [Compound 29, 3-(5-methylthiazol-4-yl)-6-(4-phenylbutoxy)-2-(thiophen-2-yl)-1H-inden-1-one] | 7.5 | > 500
19 | Cc1scnc1C1=C(c2cccs2)C(=O)c2cc(OCCOc3ccccc3)ccc21 [Compound 31, 3-(5-methylthiazol-4-yl)-6-(2-phenoxyethoxy)-2-(thiophen-2-yl)-1H-inden-1-one] | 12.8 | 166
20 | COc1ccc(OCCOc2ccc3c(c2)C(=O)C(c2ccc(C(F)(F)F)cc2)=C3c2ncsc2C)cc1OC [Compound 33, 6-(2-(3,4-dimethoxyphenoxy)ethoxy)-3-(5-methylthiazol-4-yl)-2-(4-(trifluoromethyl)phenyl)-1H-inden-1-one] | 10.4 | 145
21 | Cc1scnc1C1=C(c2ccc(C(F)(F)F)cc2)C(=O)c2cc(OCCOc3ccc4c(c3)OCO4)ccc21 [Compound 34, 6-(2-(benzo[d][1,3]dioxol-5-yloxy)ethoxy)-3-(5-methylthiazol-4-yl)-2-(4-(trifluoromethyl)phenyl)-1H-inden-1-one] | 31.2 | 426

More lines, in order of falling EC50 (Aβ1-42), values ahead:

Row | EC50 (Aβ1-42) [µM] | EC50 [1] [µM] | Compound
22 | 5.7 | 19.2 | Cc1ncsc1C1=C(c2cccnc2)C(=O)c2cc(OCCOc3ccccc3)ccc21 [Compound 17, 3-(4-methylthiazol-5-yl)-6-(2-phenoxyethoxy)-2-(pyridin-3-yl)-1H-inden-1-one]
23 | 5.6 | 350 | Cc1ncsc1C1=C(c2ccccc2)C(=O)c2cc(OCCCc3ccccc3)ccc21 [Compound 10, 3-(4-methylthiazol-5-yl)-2-phenyl-6-(3-phenylpropoxy)-1H-inden-1-one]
24 | 4.3 | 154 | Cc1ncsc1C1=C(c2cccs2)C(=O)c2cc(OCCCc3ccccc3)ccc21 [Compound 12, 3-(4-methylthiazol-5-yl)-6-(3-phenylpropoxy)-2-(thiophen-2-yl)-1H-inden-1-one]
25 | 4.1 | 5.2 | COc1ccc(OCCOc2ccc3c(c2)C(=O)C(c2ccc(F)cc2)=C3c2ncsc2C)cc1OC [Compound 23, 6-(2-(3,4-dimethoxyphenoxy)ethoxy)-2-(4-fluorophenyl)-3-(5-methylthiazol-4-yl)-1H-inden-1-one]
26 | 3.8 | 8.5 | Cc1ncsc1C1=C(Br)C(=O)c2cc(OCCCc3ccccc3)ccc21 [Compound 3, 2-bromo-3-(4-methylthiazol-5-yl)-6-(3-phenylpropoxy)-1H-inden-1-one]
27 | 3.7 | 410 | Cc1scnc1C1=C(c2cccs2)C(=O)c2cc(OCOCc3ccccc3)ccc21 [Compound 30, 6-((benzyloxy)methoxy)-3-(5-methylthiazol-4-yl)-2-(thiophen-2-yl)-1H-inden-1-one]
28 | 3.2 | 16.2 | O=C1C(c2cccnc2)=C(c2cccs2)c2ccc(OCCCc3ccccc3)cc21 [Compound 6, 6-(3-phenylpropoxy)-2-(pyridin-3-yl)-3-(thiophen-2-yl)-1H-inden-1-one]
29 | 2.4 | 4.8 | Cc1scnc1C1=C(c2cncnc2)C(=O)c2cc(OCCOc3ccc(Cl)c(Cl)c3)ccc21 [Compound 26, 6-(2-(3,4-dichlorophenoxy)ethoxy)-3-(5-methylthiazol-4-yl)-2-(pyrimidin-5-yl)-1H-inden-1-one]
30 | 1.9 | 4.2 | Cc1scnc1C1=C(c2cccnc2)C(=O)c2cc(OCCCc3ccccc3)ccc21 [Compound 8, 3-(5-methylthiazol-4-yl)-6-(3-phenylpropoxy)-2-(pyridin-3-yl)-1H-inden-1-one]
31 | 1 | > 500 | Cc1scnc1C1=C(c2ccc(C(F)(F)F)cc2)C(=O)c2cc(OCCOc3ccncc3)ccc21 [Compound 35, 3-(5-methylthiazol-4-yl)-6-(2-(pyridin-4-yloxy)ethoxy)-2-(4-(trifluoromethyl)phenyl)-1H-inden-1-one]
